In ChEMBL document CHEMBL2417411, “Design and synthesis of novel 2'-hydroxy group substituted 2-pyridone derivatives as anticancer agents” (Eur J Med Chem, 2013):
pIC50: −log10 of the molar value.

Legend:
[1] = test system: MDA-MB-231; experiment: cells; conditions: Homo sapiens, MDA-MB-231, 48 h
Description: Cytotoxicity against human MDA-MB-231 cells after 48 hrs by MTT assay

[2] = test system: A549; experiment: cells; conditions: Homo sapiens, A549, 48 h
Description: Cytotoxicity against human A549 cells after 48 hrs by MTT assay

[3] = test system: SW480; experiment: cells; conditions: Homo sapiens, SW480, 48 h
Description: Cytotoxicity against human SW480 cells after 48 hrs by MTT assay

[4] = test system: SGC-7901; experiment: cells; conditions: Homo sapiens, SGC-7901, 48 h
Description: Cytotoxicity against human SGC7901 cells after 48 hrs by MTT assay

[5] = test system: HeLa; experiment: cells; conditions: Homo sapiens, 48 h
Description: Cytotoxicity against human HeLa cells after 48 hrs by MTT assay

[6] = cells; conditions: Homo sapiens, QGY7701, 48 h
Description: Cytotoxicity against human QGY7701 cells after 48 hrs by MTT assay

[7] = physchem; conditions: octanol/water
Description: Lipophilicity, log P of the compound

[8] = test system: SW480; experiment: Ratio of 5-fluorouracil IC50 to compound IC50 for human SW480 cells after 48 hrs by MTT assay; type: functional
[9] = test system: A549; experiment: Ratio of 5-fluorouracil IC50 to compound IC50 for human A549 cells after 48 hrs by MTT assay; type: functional
[10] = test system: HeLa; experiment: Ratio of 5-fluorouracil IC50 to compound IC50 for human HeLa cells after 48 hrs by MTT assay; type: functional

Compound: COc1ccc(C(=O)c2ccc(=O)n(-c3ccccc3C)c2)c(OCc2cn(Cc3ccc(Cl)cc3Cl)nn2)c1
- pIC50 [1]: 5.92
- pIC50 [2]: 5.59
- pIC50 [3]: 5.65
- pIC50 [4]: 6.39
- pIC50 [5]: 5.45
- pIC50 [6]: 5.19
- logP [7]: 4.23

Compound: COc1ccc(C(=O)c2ccc(=O)n(-c3ccccc3C)c2)c(OCc2cn(Cc3cccc(Cl)c3)nn2)c1
- pIC50 [1]: 6.42
- pIC50 [2]: 5.82
- pIC50 [3]: 5.86
- pIC50 [4]: < 4.52
- pIC50 [5]: 5.43
- pIC50 [6]: < 4.52
- logP [7]: 4.05

Compound: COc1ccc(C(=O)c2ccc(=O)n(-c3ccccc3C)c2)c(OCc2cn(Cc3ccc(Cl)cc3)nn2)c1
- pIC50 [1]: 6.49
- pIC50 [2]: 6.07
- pIC50 [3]: 6.68
- Ratio IC50 [8]: 74.8
- pIC50 [4]: 5.96
- Ratio IC50 [9]: 6.5
- Ratio IC50 [10]: 30.6
- pIC50 [5]: 6.27
- pIC50 [6]: < 4.52
- logP [7]: 4.05

Compound: COc1ccc(C(=O)c2ccc(=O)n(-c3ccccc3C)c2)c(OCc2cn(Cc3ccccc3F)nn2)c1
- pIC50 [1]: 5.94
- pIC50 [2]: 5.40
- pIC50 [3]: 5.48
- pIC50 [4]: < 4.52
- pIC50 [5]: 5.32
- pIC50 [6]: < 4.52
- logP [7]: 3.59

Compound: COc1ccc(C(=O)c2ccc(=O)n(-c3ccccc3C)c2)c(OCc2cn(Cc3cccc(F)c3)nn2)c1
- pIC50 [1]: 5.91
- pIC50 [2]: 5.51
- pIC50 [3]: 5.65
- pIC50 [4]: < 4.52
- pIC50 [5]: 5.24
- pIC50 [6]: < 4.52
- logP [7]: 3.59

Compound: COc1ccc(C(=O)c2ccc(=O)n(-c3ccccc3C)c2)c(OCc2cn(Cc3ccc(F)cc3)nn2)c1
- pIC50 [1]: 5.84
- pIC50 [2]: 6.32
- pIC50 [3]: 5.63
- pIC50 [4]: 6.72
- pIC50 [5]: 5.07
- pIC50 [6]: 5.26
- logP [7]: 3.59

Compound: COc1ccc(C(=O)c2ccc(=O)n(-c3ccccc3C)c2)c(OCc2cn(Cc3ccccc3C)nn2)c1
- pIC50 [1]: 5.87
- pIC50 [2]: 5.49
- pIC50 [3]: 5.51
- pIC50 [4]: < 4.52
- pIC50 [5]: 5.31
- pIC50 [6]: 5.33
- logP [7]: 4.1

Compound: COc1ccc(C(=O)c2ccc(=O)n(-c3ccccc3C)c2)c(OCc2cn(Cc3cccc(C)c3)nn2)c1
- pIC50 [1]: 6.68
- pIC50 [2]: 5.49
- pIC50 [3]: 5.61
- pIC50 [4]: < 4.52
- pIC50 [5]: 5.49
- pIC50 [6]: 5.20
- logP [7]: 4.1

Compound: COc1ccc(C(=O)c2ccc(=O)n(-c3ccccc3C)c2)c(OCc2cn(Cc3ccc(C)cc3)nn2)c1
- pIC50 [1]: 6.31
- pIC50 [2]: 6.21
- pIC50 [3]: 6.32
- pIC50 [4]: 5.26
- pIC50 [5]: 6.42
- pIC50 [6]: < 4.52
- logP [7]: 4.1

Compound: COc1ccc(Cn2cc(COc3cc(OC)ccc3C(=O)c3ccc(=O)n(-c4ccccc4C)c3)nn2)cc1
- pIC50 [1]: 6.23
- pIC50 [2]: 5.81
- pIC50 [3]: < 4.52
- pIC50 [4]: 5.89
- pIC50 [5]: 6.00
- pIC50 [6]: < 4.52
- logP [7]: 3.79

Compound: COc1ccc(C(=O)C2=CC(c3ccccc3C)C(=O)C=C2)c(OCc2cn(Cc3ccc(C(C)(C)C)cc3)nn2)c1 (stereo unspecified)
- pIC50 [1]: 5.47
- pIC50 [2]: 5.76
- pIC50 [3]: 6.96
- Ratio IC50 [8]: 142.7
- pIC50 [4]: 5.45
- Ratio IC50 [10]: 48.5
- pIC50 [5]: 6.47
- pIC50 [6]: 5.47

Compound: COc1ccc(C(=O)c2ccc(=O)n(-c3ccccc3C)c2)c(OC(=O)c2ccc(C)cc2)c1
- pIC50 [1]: 6.27
- pIC50 [2]: 5.49
- pIC50 [3]: 5.64
- pIC50 [4]: 5.40
- pIC50 [5]: 5.49
- pIC50 [6]: < 4.52
- logP [7]: 4.32

Compound: CCCCC(CC)C(=O)Oc1cc(OC)ccc1C(=O)c1ccc(=O)n(-c2ccccc2C)c1 (stereo unspecified)
- pIC50 [1]: 6.43
- pIC50 [2]: 5.53
- pIC50 [3]: 5.47
- pIC50 [4]: 5.83
- pIC50 [5]: 5.64
- pIC50 [6]: < 4.52
- logP [7]: 5.04

Compound: COc1ccc(C(=O)c2ccc(=O)n(-c3ccccc3C)c2)c(OC(=O)c2ccc(Cl)cc2)c1
- pIC50 [1]: 5.74
- pIC50 [2]: 5.28
- pIC50 [3]: 5.88
- pIC50 [4]: 5.24
- pIC50 [5]: 5.81
- pIC50 [6]: < 4.52
- logP [7]: 4.27

Compound: COc1ccc(C(=O)c2ccc(=O)n(-c3ccccc3C)c2)c(OC(=O)c2ccc(F)cc2)c1
- pIC50 [1]: 5.63
- pIC50 [2]: 5.43
- pIC50 [3]: 5.56
- pIC50 [4]: 5.44
- pIC50 [5]: 5.16
- pIC50 [6]: 5.02
- logP [7]: 3.81

Compound: COc1ccc(C(=O)c2ccc(=O)n(-c3ccccc3C)c2)c(OC(C)=O)c1
- pIC50 [1]: < 4.52
- pIC50 [2]: < 4.52
- pIC50 [3]: < 4.52
- pIC50 [4]: 5.21
- pIC50 [5]: < 4.52
- pIC50 [6]: < 4.52
- logP [7]: 2.7

Compound: COc1ccc(C(=O)c2ccc(=O)n(-c3ccccc3C)c2)c(OC(=O)c2ccccc2)c1
- pIC50 [1]: 5.93
- pIC50 [2]: 5.35
- pIC50 [3]: 5.51
- pIC50 [4]: 5.85
- pIC50 [5]: 5.14
- pIC50 [6]: < 4.52
- logP [7]: 4.09

Compound: COc1ccc(C(=O)c2ccc(=O)n(-c3ccccc3C)c2)c(OC(=O)Cc2ccc(Cl)cc2)c1
- pIC50 [1]: 5.61
- pIC50 [2]: 6.31
- pIC50 [3]: 6.24
- pIC50 [4]: 5.46
- pIC50 [5]: 6.24
- pIC50 [6]: 5.25
- logP [7]: 4.4

Compound: COc1ccc(C(=O)c2ccc(=O)n(-c3ccccc3C)c2)c(OC(=O)Cc2ccccc2Cl)c1
- pIC50 [1]: 5.53
- pIC50 [2]: 5.71
- pIC50 [3]: 5.93
- pIC50 [4]: 5.84
- pIC50 [5]: 6.06
- pIC50 [6]: 5.22
- logP [7]: 4.4

Compound: COc1ccc(C(=O)c2ccc(=O)n(-c3ccccc3C)c2)c(OC(=O)c2cc([N+](=O)[O-])cc([N+](=O)[O-])c2)c1
- pIC50 [1]: 5.48
- pIC50 [2]: 5.41
- pIC50 [3]: 5.56
- pIC50 [4]: 5.61
- pIC50 [5]: 5.27
- pIC50 [6]: < 4.52
- logP [7]: 3.88

Compound: CCCOC(=O)Oc1cc(OC)ccc1C(=O)c1ccc(=O)n(-c2ccccc2C)c1
- pIC50 [1]: 5.68
- pIC50 [2]: 5.21
- pIC50 [3]: 5.22
- pIC50 [4]: 5.38
- pIC50 [5]: 5.15
- pIC50 [6]: < 4.52
- logP [7]: 3.31

Compound: COc1ccc(C(=O)c2ccc(=O)n(-c3ccccc3C)c2)c(OC(=O)OCc2ccccc2)c1
- pIC50 [1]: 6.12
- pIC50 [2]: 6.23
- pIC50 [3]: 6.28
- Ratio IC50 [8]: 30.2
- pIC50 [4]: 6.16
- Ratio IC50 [9]: 9.5
- Ratio IC50 [10]: 35.9
- pIC50 [5]: 6.34
- pIC50 [6]: 5.36
- logP [7]: 4.23

Compound: CCOC(=O)Oc1cc(OC)ccc1C(=O)c1ccc(=O)n(-c2ccccc2C)c1
- pIC50 [1]: < 4.52
- pIC50 [2]: 5.23
- pIC50 [3]: 5.34
- pIC50 [4]: 5.47
- pIC50 [5]: 5.13
- pIC50 [6]: < 4.52
- logP [7]: 2.95

Compound: C#CCOc1cc(OC)ccc1C(=O)c1ccc(=O)n(-c2ccccc2C)c1
- pIC50 [1]: < 4.52
- pIC50 [2]: 5.12
- pIC50 [3]: 5.27
- pIC50 [4]: 5.16
- pIC50 [5]: 5.11
- pIC50 [6]: 5.04

Compound: COc1ccc(C(=O)c2ccc(=O)n(-c3ccccc3C)c2)c(OCc2cn(Cc3ccccc3)nn2)c1
- pIC50 [1]: < 4.52
- pIC50 [2]: 5.44
- pIC50 [3]: 5.60
- pIC50 [4]: 5.90
- pIC50 [5]: 5.37
- pIC50 [6]: < 4.52
- logP [7]: 3.88

Compound: COc1ccc(C(=O)c2ccc(=O)n(-c3ccccc3C)c2)c(OCc2cn(Cc3ccccc3Br)nn2)c1
- pIC50 [1]: < 4.52
- pIC50 [2]: 5.27
- pIC50 [3]: 5.44
- pIC50 [4]: 5.91
- pIC50 [5]: 5.28
- pIC50 [6]: < 4.52
- logP [7]: 4.05

Compound: COc1ccc(C(=O)c2ccc(=O)n(-c3ccccc3C)c2)c(OCc2cn(Cc3cccc(Br)c3)nn2)c1
- pIC50 [1]: < 4.52
- pIC50 [2]: 5.35
- pIC50 [3]: 5.63
- pIC50 [4]: 5.25
- pIC50 [5]: 5.34
- pIC50 [6]: < 4.52
- logP [7]: 4.05

Compound: COc1ccc(C(=O)c2ccc(=O)n(-c3ccccc3C)c2)c(OCc2cn(Cc3ccc(Br)cc3)nn2)c1
- pIC50 [1]: 5.61
- pIC50 [2]: 5.26
- pIC50 [3]: < 4.52
- pIC50 [4]: 5.64
- pIC50 [5]: 5.37
- pIC50 [6]: 5.30
- logP [7]: 4.23

Compound: COc1ccc(C(=O)c2ccc(=O)n(-c3ccccc3C)c2)c(OCc2cn(Cc3ccccc3C#N)nn2)c1
- pIC50 [1]: < 4.52
- pIC50 [2]: 5.08
- pIC50 [3]: < 4.52
- pIC50 [4]: < 4.52
- pIC50 [5]: 5.09
- pIC50 [6]: < 4.52
- logP [7]: 3.6

Compound: COc1ccc(C(=O)c2ccc(=O)n(-c3ccccc3C)c2)c(OCc2cn(Cc3ccc(C#N)cc3)nn2)c1
- pIC50 [1]: 6.37
- pIC50 [2]: 5.37
- pIC50 [3]: < 4.52
- pIC50 [4]: < 4.52
- pIC50 [5]: 6.05
- pIC50 [6]: 5.54
- logP [7]: 3.6

Compound: COc1ccc(C(=O)c2ccc(=O)n(-c3ccccc3C)c2)c(OCc2cn(Cc3cccc(O[N+](=O)[O-])c3)nn2)c1
- pIC50 [1]: 5.86
- pIC50 [2]: 5.44
- pIC50 [3]: 5.35
- pIC50 [4]: 6.26
- pIC50 [5]: 5.51
- pIC50 [6]: 5.52
- logP [7]: 3.77

Compound: COc1ccc(C(=O)c2ccc(=O)n(-c3ccccc3C)c2)c(OCc2cn(Cc3ccccc3Cl)nn2)c1
- pIC50 [1]: 6.42
- pIC50 [2]: 6.16
- pIC50 [3]: 6.41
- pIC50 [4]: < 4.52
- pIC50 [5]: 5.77
- pIC50 [6]: 5.33
- logP [7]: 4.05

Compound: O=c1[nH]cc(F)c(=O)[nH]1 [FLUOROURACIL]
- pIC50 [5]: 4.78
